Columns and labels:
MCF7-GFP cells = assay: Drug treatment of fluorescently-labeled MCF7-fibroblast co-cultures vs mono-cultures (GFP fluorescence, plate-reader); assay type: cell-based, human; conditions: 72 hours; for Sensitivity of MCF7-GFP cells in co-culture with fibroblasts relative to mono-cultures: at 500 μM drug, GFP fluorescence, hTERT-BJ1-RFP fibroblast co-culture vs MCF7-GFP mono-culture
Text: To directly test this hypothesis, a new assay system may be used to monitor the sensitivity of cancer cells to drug treatment, in the presence or absence of fibroblasts. For this purpose, hTERT-BJ1-fibroblasts expressing RFP (red fluorescent protein) and MCF7 cells expressing GFP (green fluorescent protein) were generated. Representative images of these mono-cultures are shown in FIGS. 14A (hTERT-BJ1-RFP) and 14B (MCF7-GFP). The hTERT-BJ1-fibroblasts expressing RFP and MCF7 cells expressing GFP were generated by lentiviral transduction. RFP, red fluorescent protein; GFP, green fluorescent protein.
Validation via drug treatment of fluorescently-labeled MCF7-fibroblast co-cultures: hTERT-BJ1-RFP cells and MCF7-GFP cells were first generated by stable transduction with lenti-viral vectors. Then, these cells were plated into clear flat bottom 96-well black microplates (Corning; CLS3603). Mono-cultures were generated by plating either hTERT-BJ1-RFP (8,000 cells/well) or MCF7-GFP cells (8,000 cells/well). In parallel, co-cultures were generated by co-plating hTERT-BJ1-RFP (6,000 cells/well) with MCF7-GFP (2,000 cells/well). The next day, the plates were treated with either Doxycycline or Azithromycin (or vehicle controls) and were incubated for 72 hours at 37° C. The cell culture plates were then read with a plate-reader at 545/590 nm (for RFP) and at 490/510 nm (for GFP). Background readings were subtracted from the fluorescent signal and data were then normalized to controls.

[1] = system: MCF7-fibroblasts co-cultures; conditions: MCF7-fibroblast co-cultures; Tamoxifen, Fulvestrant; cited from earlier work

| Structure (SMILES) | Sensitivity of MCF7-GFP cells in co-culture with fibroblasts relative to mono-cultures (MCF7-GFP cells) | Concentration at which increased sensitivity of MCF7-GFP cells in co-culture was first observed (MCF7-GFP cells; not observed at 50 μM) | Effect on resistance of co-cultures to apoptosis induced by hormonal therapies [1] |
| --- | --- | --- | --- |
| CC[C@H]1OC(=O)[C@H](C)[C@@H](O[C@H]2C[C@@](C)(OC)[C@@H](O)[C@H](C)O2)[C@H](C)[C@@H](O[C@@H]2O[C@H](C)C[C@H](N(C)C)[C@H]2O)[C@](C)(O)C[C@@H](C)CN(C)[C@H](C)[C@@H](O)[C@]1(C)O [Azithromycin] | ~8 fold | – | – |
| C[C@H]1c2cccc(O)c2C(=O)C2=C(O)[C@]3(O)C(=O)C(C(N)=O)=C(O)[C@@H](N(C)C)[C@@H]3[C@@H](O)[C@@H]21 [Doxycycline] | ~5 fold | 100 µM | – |
| CN(C)C(=N)N=C(N)N [Metformin] | – | – | reversed |
